Test results reported in patent US10793568B2, “Hormone receptor modulators for treating metabolic conditions and disorders” (ARDELYX, INC., priority 2016, dated 2020).

Legend:
[1] = target: human Farnesoid X receptor ligand-binding domain/Gal4 DNA binding domain chimera (Homo sapiens (Human), UniProt Q96RI1); test: Cell-based assay of FXR activation (FXR-UAS-bla HEK 293T beta-lactamase reporter); settings: cellular FXR beta-lactamase reporter assay; for EC50: FXR-UAS-bla HEK 293T cells, 16 h, pEC50 = -log EC50; for Emax: HEK-293T, extent of activation relative to GW4064, read-out: % Efficacy
Chain of human Farnesoid X receptor ligand-binding domain/Gal4 DNA binding domain chimera (Q96RI1 262-486, change not shown): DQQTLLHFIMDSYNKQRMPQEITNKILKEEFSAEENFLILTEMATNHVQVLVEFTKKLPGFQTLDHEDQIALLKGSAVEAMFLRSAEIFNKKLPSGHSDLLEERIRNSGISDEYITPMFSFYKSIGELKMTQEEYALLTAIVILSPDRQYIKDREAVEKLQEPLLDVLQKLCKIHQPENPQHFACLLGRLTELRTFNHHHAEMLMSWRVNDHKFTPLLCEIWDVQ
Chain of human Farnesoid X receptor ligand-binding domain/Gal4 DNA binding domain chimera (P04386 1-147 partner): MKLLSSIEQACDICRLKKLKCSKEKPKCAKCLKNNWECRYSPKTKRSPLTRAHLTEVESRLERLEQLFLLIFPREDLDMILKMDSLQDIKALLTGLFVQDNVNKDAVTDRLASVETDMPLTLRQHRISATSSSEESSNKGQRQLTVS
Outline: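 Readout is cleavage of the CCF4 FRET substrate (409 nm excitation, blue 447 nm signal) by beta-lactamase, expressed under UAS control after a Gal4–human FXR LBD chimera is activated in HEK 293T cells. Compounds were added as 3-fold dilutions for 16 h at 37 °C in 2% charcoal-stripped FBS medium. Curves were fit to a 3-parameter logistic equation to give pEC50, with % activation relative to GW4064.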

[2] = target: ligand binding domain of human FXR (Homo sapiens (Human), UniProt Q96RI1); test: FXR ligand binding assay (LanthaScreen TR-FRET, SRC2-2 peptide recruitment); settings: for pEC50: -log EC50, concentration required to produce 50% activation; for Emax: extent of activation relative to GW4064, read-out: % Efficacy
Chain of ligand binding domain of human FXR (Q96RI1 262-486): as the sequence (Q96RI1 262-486, change not shown) above

SMILES	EC50 [1]	pEC50 [2]	Emax [2]	Emax [1]
COc1ccc(-c2noc(C3CC3)c2CO[C@@H]2C[C@@H]3C[C@H]2CN3c2nc3c(F)cc(C(=O)O)cc3s2)cc1 [Compound I-290, 2-((1S,4S,5R)-5-((5-cyclopropyl-3-(4-methoxyphenyl)isoxazol-4-yl)methoxy)-2-azabicyclo[2.2.1]heptan-2-yl)-4-fluorobenzo[d]thiazole-6-carboxylic acid]	< 31.6 nM	>4.5	–	–
O=C(O)c1cc(F)c2nc(N3C[C@@H]4C[C@H]3C[C@H]4OCc3c(-c4ccccc4O)noc3C3CC3)sc2c1 [Compound I-291, 2-((1S,4S,5R)-5-((5-cyclopropyl-3-(2-hydroxyphenyl)isoxazol-4-yl)methoxy)-2-azabicyclo[2.2.1]heptan-2-yl)-4-fluorobenzo[d]thiazole-6-carboxylic acid]	< 31.6 nM	6.1	120%	–
O=C(O)c1cc(F)c2nc(N3C[C@@H]4C[C@H]3C[C@H]4OCc3c(-c4cccc(O)c4)noc3C3CC3)sc2c1 [Compound I-292, 2-((1S,4S,5R)-5-((5-cyclopropyl-3-(3-hydroxyphenyl)isoxazol-4-yl)methoxy)-2-azabicyclo[2.2.1]heptan-2-yl)-4-fluorobenzo[d]thiazole-6-carboxylic acid]	< 31.6 nM	6.5	120%	–
O=C(O)c1cc(F)c2nc(N3C[C@@H]4C[C@H]3C[C@H]4OCc3c(-c4ccc(O)cc4)noc3C3CC3)sc2c1 [Compound I-293, 2-((1S,4S,5R)-5-((5-cyclopropyl-3-(4-hydroxyphenyl)isoxazol-4-yl)methoxy)-2-azabicyclo[2.2.1]heptan-2-yl)-4-fluorobenzo[d]thiazole-6-carboxylic acid]	< 31.6 nM	>4.5	–	–
CCc1cc(C(=O)O)cc2sc(N3C(=O)[C@@H]4C[C@H]3C[C@H]4OCc3c(-c4c(Cl)cccc4Cl)noc3C3CC3)nc12 [Compound I-294, 2-[(1S,4R,5R)-5-{[5-cyclopropyl-3-(2,6-dichlorophenyl)-1,2-oxazol-4-yl]methoxy}-3-oxo-2-azabicyclo[2.2.1]heptan-2-yl]-4-ethyl-1,3-benzothiazole-6-carboxylic Acid]	2.51 nM	8.2	82%	104%
O=C(O)c1cc(C2CC2)c2nc(N3C(=O)[C@@H]4C[C@H]3C[C@H]4OCc3c(-c4c(Cl)cccc4Cl)noc3C3CC3)sc2c1 [Compound I-295, 4-cyclopropyl-2-((1S,4R,5R)-5-((5-cyclopropyl-3-(2,6-dichlorophenyl)isoxazol-4-yl)methoxy)-3-oxo-2-azabicyclo[2.2.1]heptan-2-yl)benzo[d]thiazole-6-carboxylic acid]	1 nM	8.2	98%	105%
O=C(O)c1cc(C2CCC2)c2nc(N3C(=O)[C@@H]4C[C@H]3C[C@H]4OCc3c(-c4c(Cl)cccc4Cl)noc3C3CC3)sc2c1 [Compound I-296, 4-cyclobutyl-2-((1S,4R,5R)-5-((5-cyclopropyl-3-(2,6-dichlorophenyl)isoxazol-4-yl)methoxy)-3-oxo-2-azabicyclo[2.2.1]heptan-2-yl)benzo[d]thiazole-6-carboxylic acid]	10 nM	7.6	90%	109%
O=C(O)c1cc(OC2CC2)c2nc(N3C(=O)[C@@H]4C[C@H]3C[C@H]4OCc3c(-c4c(Cl)cccc4Cl)noc3C3CC3)sc2c1 [Compound I-297, 4-cyclopropoxy-2-((1S,4R,5R)-5-((5-cyclopropyl-3-(2,6-dichlorophenyl)isoxazol-4-yl)methoxy)-3-oxo-2-azabicyclo[2.2.1]heptan-2-yl)benzo[d]thiazole-6-carboxylic acid]	0.316 nM	9	77%	110%
O=C(O)c1cc(C2CCOCC2)c2nc(N3C(=O)[C@@H]4C[C@H]3C[C@H]4OCc3c(-c4c(Cl)cccc4Cl)noc3C3CC3)sc2c1 [Compound I-298, 2-((1S,4R,5R)-5-((5-cyclopropyl-3-(2,6-dichlorophenyl)isoxazol-4-yl)methoxy)-3-oxo-2-azabicyclo[2.2.1]heptan-2-yl)-4-(tetrahydro-2H-pyran-4-yl)benzo[d]thiazole-6-carboxylic acid]	7.94 nM	–	133%	112%
O=C(O)c1cc(C2CCOC2)c2nc(N3C(=O)[C@@H]4C[C@H]3C[C@H]4OCc3c(-c4c(Cl)cccc4Cl)noc3C3CC3)sc2c1 (stereo partly drawn) [Compound I-299, 2-((1S,4R,5R)-5-((5-cyclopropyl-3-(2,6-dichlorophenyl)isoxazol-4-yl)methoxy)-3-oxo-2-azabicyclo[2.2.1]heptan-2-yl)-4-(tetrahydrofuran-3-yl)benzo[d]thiazole-6-carboxylic acid]	3.98 nM	8	112%	108%
O=C(O)c1cc(C2CC3(CCOCC3)C2)c2nc(N3C(=O)[C@@H]4C[C@H]3C[C@H]4OCc3c(-c4c(Cl)cccc4Cl)noc3C3CC3)sc2c1 [Compound I-300, 2-((1S,4R,5R)-5-((5-cyclopropyl-3-(2,6-dichlorophenyl)isoxazol-4-yl)methoxy)-3-oxo-2-azabicyclo[2.2.1]heptan-2-yl)-4-(7-oxaspiro[3.5]nonan-2-yl)benzo[d]thiazole-6-carboxylic acid]	100 nM	1	82%	117%
O=C(O)c1cc(O[C@H]2CCOC2)c2nc(N3C(=O)[C@@H]4C[C@H]3C[C@H]4OCc3c(-c4c(Cl)cccc4Cl)noc3C3CC3)sc2c1 [Compound I-302, 2-((1S,4R,5R)-5-((5-cyclopropyl-3-(2,6-dichlorophenyl)isoxazol-4-yl)methoxy)-3-oxo-2-azabicyclo[2.2.1]heptan-2-yl)-4-(((S)-tetrahydrofuran-3-yl)oxy)benzo[d]thiazole-6-carboxylic acid]	39.8 nM	8.4	106%	114%
O=C(O)CCc1ccc(N2C(=O)[C@@H]3C[C@H]2C[C@H]3OCc2c(-c3c(Cl)cccc3Cl)noc2C2CC2)cc1 [Compound I-303, 3-{4-[(1S,4R,5R)-5-{[5-cyclopropyl-3-(2,6-dichlorophenyl)-1,2-oxazol-4-yl]methoxy}-3-oxo-2-azabicyclo[2.2.1]heptan-2-yl]phenyl}propanoic Acid]	6.31 nM	7.4	132%	98%
O=C(O)CCc1ccc(N2C(=O)[C@@H]3C[C@H]2C[C@H]3OCc2c(-c3c(Cl)cccc3Cl)noc2C2CC2)c(F)c1 [Compound I-304, 3-{4-[(1S,4R,5R)-5-{[5-cyclopropyl-3-(2,6-dichlorophenyl)-1,2-oxazol-4-yl]methoxy}-3-oxo-2-azabicyclo[2.2.1]heptan-2-yl]-3-fluorophenyl}propanoic Acid]	100 nM	6.6	118%	107%
O=C(O)CCc1ccc(N2C(=O)[C@@H]3C[C@H]2C[C@H]3OCc2c(-c3c(Cl)cccc3Cl)noc2C2CC2)cc1F [Compound I-305, 3-{4-[(1S,4R,5R)-5-{[5-cyclopropyl-3-(2,6-dichlorophenyl)-1,2-oxazol-4-yl]methoxy}-3-oxo-2-azabicyclo[2.2.1]heptan-2-yl]-2-fluorophenyl}propanoic Acid]	3.16 nM	7.5	121%	98%
O=C(O)c1ccc(N2C(=O)[C@@H]3C[C@H]2C[C@H]3OCc2c(-c3c(F)cccc3Cl)noc2C2CC2)cc1 [Compound I-306, 4-[(1S,4R,5R)-5-{[3-(2-chloro-6-fluorophenyl)-5-cyclopropyl-1,2-oxazol-4-yl]methoxy}-3-oxo-2-azabicyclo[2.2.1]heptan-2-yl]benzoic Acid]	2.51 nM	8.2	171%	108%
Cc1cccc(F)c1-c1noc(C2CC2)c1CO[C@@H]1C[C@@H]2C[C@H]1C(=O)N2c1ccc(C(=O)O)cc1 [Compound I-307, 4-[(1S,4R,5R)-5-{[5-cyclopropyl-3-(2-fluoro-6-methylphenyl)-1,2-oxazol-4-yl]methoxy}-3-oxo-2-azabicyclo[2.2.1]heptan-2-yl]benzoic Acid]	10 nM	7.4	154%	110%
Cc1cccc(C)c1-c1noc(C2CC2)c1CO[C@@H]1C[C@@H]2C[C@H]1C(=O)N2c1ccc(C(=O)O)cc1 [Compound I-308, 4-[(1S,4R,5R)-5-{[5-cyclopropyl-3-(2,6-dimethylphenyl)-1,2-oxazol-4-yl]methoxy}-3-oxo-2-azabicyclo[2.2.1]heptan-2-yl]benzoic Acid]	3.98 nM	7.6	150%	99%
Cc1cccc(Cl)c1-c1noc(C2CC2)c1CO[C@@H]1C[C@@H]2C[C@H]1C(=O)N2c1ccc(C(=O)O)cc1 [Compound I-309, 4-[(1S,4R,5R)-5-{[3-(2-chloro-6-methylphenyl)-5-cyclopropyl-1,2-oxazol-4-yl]methoxy}-3-oxo-2-azabicyclo[2.2.1]heptan-2-yl]benzoic Acid]	1.58 nM	8.2	157%	104%
CC(C)c1cccc(F)c1-c1noc(C2CC2)c1CO[C@@H]1C[C@@H]2C[C@H]1C(=O)N2c1ccc(C(=O)O)cc1 [Compound I-310, 4-[(1S,4R,5R)-5-({5-cyclopropyl-3-[2-fluoro-6-(propan-2-yl)phenyl]-1,2-oxazol-4-yl}methoxy)-3-oxo-2-azabicyclo[2.2.1]heptan-2-yl]benzoic Acid]	7.94 nM	7.6	155%	115%
